In this experiment the test system is L1210 leukemia ip in BDF1 mice, survival T/C. Briefly: NCI In Vivo Anticancer Drug Screen. Data for tumor model L1210 Leukemia (intraperitoneal) in B6D2F1 (BDF1) mice. As to conditions: endpoint: mean survival time, higher = longer survival. The gist of the method:
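Value reflects the ratio of survival in compound-treated mice to survival in vehicle-treated controls, with both groups carrying the same transplanted tumor.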

Where [1] appears, read: dose: 25.0 mg/kg/injection, schedule: Q04DX003 (ip), vehicle: saline.
Setting [2] is: dose: 100.0 mg/kg/injection, schedule: Q04DX003 (ip), vehicle: Klucel (hydroxypropylcellulose) (HPC).
Where [3] appears, read: dose: 200.0 mg/kg/injection, schedule: Q04DX003 (ip), vehicle: Klucel (hydroxypropylcellulose) (HPC).
[4] abbreviates: dose: 400.0 mg/kg/injection, schedule: Q04DX003 (ip), vehicle: Klucel (hydroxypropylcellulose) (HPC).
[5] abbreviates: dose: 50.0 mg/kg/injection, schedule: Q01DX001 (ip), vehicle: saline.
Where [6] appears, read: dose: 100.0 mg/kg/injection, schedule: Q01DX009 (ip), vehicle: Klucel (hydroxypropylcellulose) (HPC).
The mark [7] stands for this setting: dose: 200.0 mg/kg/injection, schedule: Q01DX009 (ip), vehicle: Klucel (hydroxypropylcellulose) (HPC).
Setting [8] is: dose: 400.0 mg/kg/injection, schedule: Q01DX009 (ip), vehicle: Klucel (hydroxypropylcellulose) (HPC).
[9] abbreviates: dose: 100.0 mg/kg/injection, schedule: Q04DX003 (ip), vehicle: saline with Tween-80.
Setting [10] is: dose: 200.0 mg/kg/injection, schedule: Q04DX003 (ip), vehicle: saline with Tween-80.
Where [11] appears, read: dose: 400.0 mg/kg/injection, schedule: Q04DX003 (ip), vehicle: saline with Tween-80.
Setting [12] is: dose: 25.0 mg/kg/injection, schedule: Q01DX009 (ip), vehicle: saline.

Values joined by “and” are separate entries in the source; they are usually repeats but may differ in a detail not shown here. Equal values may be shown once. Toxic doses and inconclusive results are not listed. Bridge positions count the residues as written; N and C are the ends. Square brackets hold non-standard residues; d marks the D form. Peptide text beside a SMILES is read from it. NMeV = CN[CH](C(=O)O)C(C)C; Sar = CNCC(=O)O

As for `COc1ccc2c(C(=O)N(CCCl)CCCl)cc3cc(OC)c(OC)cc3c2c1`, the T/C by setting is: under setting [1], 116 % of control; (dose: 50.0 mg/kg/injection, schedule: Q04DX003 (ip), vehicle: saline) 102 % of control.

Turning to `Cc1ccc(C(=O)c2ccccc2)cc1`, the T/C by setting is: under setting [2], 97 % of control; under setting [3], 104 % of control; under setting [4], 92 % of control.

In the case of `CN=C(N)c1ccc(N=C(N)c2ccc(N=C(N)c3ccc(N)cc3)cc2)cc1`, the T/C runs as follows: (dose: 4.25 mg/kg/injection, schedule: Q01DX Z (ip), vehicle: water) 112 % of control; (dose: 8.5 mg/kg/injection, schedule: Q01DX Z (ip), vehicle: water) 120 % of control; (dose: 35.0 mg/kg/injection, schedule: Q01DX015 (ip), vehicle: saline) 151 % of control; under setting [5], 115 % of control; (dose: 62.5 mg/kg/injection, schedule: Q01DX Z (oral), vehicle: water) 101 % of control; (dose: 125.0 mg/kg/injection, schedule: Q01DX Z (oral), vehicle: water) 103 % of control. For the same molecule, for the setting “dose: 250.0 mg/kg/injection, schedule: Q01DX Z (oral), vehicle: water”, the T/C is 102 % of control.

Regarding `CCS(=O)(=O)Nc1ccc(NS(=O)(=O)CC)cc1`, the T/C is, setting by setting: under setting [6], 96 % of control; under setting [7], 100 % of control; under setting [8], 101 % of control.

Take `NOCc1cnccn1`: the T/C by setting is: (dose: 75.0 mg/kg/injection, schedule: Q01DX001 (ip), vehicle: saline) 92 % of control; (dose: 150.0 mg/kg/injection, schedule: Q01DX001 (ip), vehicle: saline) 96 % of control; (dose: 300.0 mg/kg/injection, schedule: Q01DX001 (ip), vehicle: saline) 88 % of control.

Take `O=C1C(=O)C(CCc2ccccc2)C(=O)/C1=C\c1ccccc1` (centres undefined): the T/C under setting [9] is 95 % of control and the T/C under setting [10] is 86 % of control.

Consider `O=C(Nc1ccc(S(=O)(=O)F)cc1)c1cccc([N+](=O)[O-])c1`, for which the T/C is 101 % of control (dose: 100.0 mg/kg/injection, schedule: Q01DX001 (ip), vehicle: saline); 100 % of control (dose: 200.0 mg/kg/injection, schedule: Q01DX001 (ip), vehicle: saline); 97 % of control (dose: 400.0 mg/kg/injection, schedule: Q01DX001 (ip), vehicle: saline).

On to `N#CC(C#N)=C(C#N)C#N`, for which the T/C is, setting by setting: (dose: 3.13 mg/kg/injection, schedule: Q01DX009 (ip), vehicle: Klucel (hydroxypropylcellulose) (HPC)) 95 % of control; (dose: 6.25 mg/kg/injection, schedule: Q01DX009 (ip), vehicle: Klucel (hydroxypropylcellulose) (HPC)) 91 % of control.

For `CNC(=O)NS(=O)(=O)c1ccc(Cl)cc1`, the T/C is, setting by setting: (dose: 100.0 mg/kg/injection, schedule: Q04DX002 (ip), vehicle: saline with Tween-80) 97 % of control and 102 % of control; under setting [9], 103 % of control and 105 % of control; (dose: 200.0 mg/kg/injection, schedule: Q04DX002 (ip), vehicle: saline with Tween-80) 98 % of control and 91 % of control; under setting [10], 94 % of control and 101 % of control; (dose: 400.0 mg/kg/injection, schedule: Q04DX002 (ip), vehicle: saline with Tween-80) 97 % of control and 98 % of control; under setting [11], 115 % of control and 90 % of control.

With `CC(C)C(=O)c1ccc([N+](=O)[O-])o1`, the T/C is, setting by setting: (dose: 100.0 mg/kg/injection, schedule: Q01DX009 (ip), vehicle: saline with Tween-80) 94 % of control; under setting [9], 99 % of control; (dose: 200.0 mg/kg/injection, schedule: Q01DX009 (ip), vehicle: saline with Tween-80) 96 % of control; under setting [10], 99 % of control; under setting [11], 88 % of control.

With `CC1(C)CCCC(C)(C)N1`, the T/C under setting [5] is 94 % of control.

Take `CC12CC1(C)C(=O)OC2=O` (centres undefined): the T/C by setting is: under setting [9], 87 % of control; under setting [10], 92 % of control.

`O=C(Nc1ccc(Cl)c(Cl)c1)SCCSC(=O)Nc1ccc(Cl)c(Cl)c1`: the T/C was 107 % of control (dose: 100.0 mg/kg/injection, schedule: Q01DX001 (ip), vehicle: saline with Tween-80); 92 % of control (dose: 200.0 mg/kg/injection, schedule: Q01DX001 (ip), vehicle: saline with Tween-80); 93 % of control (dose: 400.0 mg/kg/injection, schedule: Q01DX001 (ip), vehicle: saline with Tween-80).

For `CC1C2COCC2CC2OC21` (centres undefined), the T/C reads like this: (dose: 50.0 mg/kg/injection, schedule: Q01DX001 (ip), vehicle: saline sonified) 124 % of control; (dose: 100.0 mg/kg/injection, schedule: Q01DX001 (ip), vehicle: saline sonified) 109 % of control; (dose: 200.0 mg/kg/injection, schedule: Q01DX001 (ip), vehicle: saline sonified) 102 % of control.

Consider `N/C(=N\O)c1cn(C2OC(CO)C(O)C2O)c2ncncc12` (centres undefined), for which the T/C is 123 % of control under setting [12] and 120 % of control (dose: 100.0 mg/kg/injection, schedule: Q01DX005 (ip), vehicle: saline).

Consider `COc1cc2c(c(OC)c1OC)-c1ccc(SC)c(=O)cc1C(N=Cc1ccccc1)CC2` (centres undefined), for which the T/C was 106 % of control under setting [9] and 90 % of control under setting [10].

As for `Cc1ccc(C(C)C)c(OCCNC2=NCCN2)c1`, the T/C runs as follows: (dose: 6.25 mg/kg/injection, schedule: Q01DX009 (ip), vehicle: saline) 97 % of control; (dose: 6.25 mg/kg/injection, schedule: Q04DX003 (ip), vehicle: saline) 97 % of control; (dose: 12.5 mg/kg/injection, schedule: Q01DX009 (ip), vehicle: saline) 104 % of control; (dose: 12.5 mg/kg/injection, schedule: Q04DX003 (ip), vehicle: saline) 92 % of control; under setting [12], 97 % of control; under setting [1], 97 % of control.

For the molecule `CC1(C)COC(c2ccccc2Br)=N1`, the T/C is 107 % of control under setting [6]; 104 % of control and 105 % of control under setting [2]; 104 % of control under setting [7]; 97 % of control and 105 % of control under setting [3]; 93 % of control under setting [8]; 93 % of control and 100 % of control under setting [4].

With `CC(C)C1NC(=O)C(N)C(C)OC(=O)C(C(C)C)N(C)C(=O)CN(C)C(=O)C2CCCN2C1=O` (centres undefined) (tested in a mixture with another compound) (H-TVP[Sar][NMeV]; ester 1-C; configuration not given here), the T/C runs as follows: (dose: 0.1 mg/kg/injection, schedule: Q01DX001 (ip), vehicle: saline + alcohol) 103 % of control; (dose: 0.2 mg/kg/injection, schedule: Q01DX001 (ip), vehicle: saline + alcohol) 107 % of control; (dose: 0.4 mg/kg/injection, schedule: Q01DX001 (ip), vehicle: saline + alcohol) 124 % of control; (dose: 0.8 mg/kg/injection, schedule: Q01DX001 (ip), vehicle: saline + alcohol) 122 % of control; (dose: 15.6 micrograms/kg/injection, schedule: Q01DX009 (ip), vehicle: other) 95 % of control; (dose: 25.0 micrograms/kg/injection, schedule: Q01DX009 (ip), vehicle: saline + alcohol) 106 % of control. The T/C by setting is: (dose: 31.3 micrograms/kg/injection, schedule: Q01DX009 (ip), vehicle: other) 92 % of control; (dose: 62.5 micrograms/kg/injection, schedule: Q01DX009 (ip), vehicle: other) 97 % of control; (dose: 75.0 micrograms/kg/injection, schedule: Q04DX003 (ip), vehicle: saline + alcohol) 103 % of control; (dose: 125.0 micrograms/kg/injection, schedule: Q01DX009 (ip), vehicle: other) 105 % of control; (dose: 150.0 micrograms/kg/injection, schedule: Q04DX003 (ip), vehicle: saline + alcohol) 106 % of control; (dose: 250.0 micrograms/kg/injection, schedule: Q01DX009 (ip), vehicle: other) 121 % of control. For the same molecule, the T/C by setting is: (dose: 300.0 micrograms/kg/injection, schedule: Q04DX003 (ip), vehicle: saline + alcohol) 121 % of control; (dose: 500.0 micrograms/kg/injection, schedule: Q01DX009 (ip), vehicle: other) 103 % of control; (dose: 1200.0 micrograms/kg/injection, schedule: Q04DX003 (ip), vehicle: saline + alcohol) 116 % of control.

Take `CS(=O)(=O)Oc1ccc(Cl)c2ccccc12`: the T/C by setting is: (dose: 100.0 mg/kg/injection, schedule: Q01DX001 (ip), vehicle: carboxymethylcellulose (CMC)) 98 % of control; (dose: 200.0 mg/kg/injection, schedule: Q01DX001 (ip), vehicle: carboxymethylcellulose (CMC)) 101 % of control; (dose: 400.0 mg/kg/injection, schedule: Q01DX001 (ip), vehicle: carboxymethylcellulose (CMC)) 95 % of control.
